“And” between values parts separate entries of the source, which are not always exact repeats. Identical values can stand only once.
Biological target: T1, TMEM16A (Homo sapiens, UniProt Q5XXA6, DEL476-501)
T1 construct: expressed in transfected cells
T1 sequence (Q5XXA6 with tags, fused parts or gaps isoform Q5XXA6-5 DEL539-564): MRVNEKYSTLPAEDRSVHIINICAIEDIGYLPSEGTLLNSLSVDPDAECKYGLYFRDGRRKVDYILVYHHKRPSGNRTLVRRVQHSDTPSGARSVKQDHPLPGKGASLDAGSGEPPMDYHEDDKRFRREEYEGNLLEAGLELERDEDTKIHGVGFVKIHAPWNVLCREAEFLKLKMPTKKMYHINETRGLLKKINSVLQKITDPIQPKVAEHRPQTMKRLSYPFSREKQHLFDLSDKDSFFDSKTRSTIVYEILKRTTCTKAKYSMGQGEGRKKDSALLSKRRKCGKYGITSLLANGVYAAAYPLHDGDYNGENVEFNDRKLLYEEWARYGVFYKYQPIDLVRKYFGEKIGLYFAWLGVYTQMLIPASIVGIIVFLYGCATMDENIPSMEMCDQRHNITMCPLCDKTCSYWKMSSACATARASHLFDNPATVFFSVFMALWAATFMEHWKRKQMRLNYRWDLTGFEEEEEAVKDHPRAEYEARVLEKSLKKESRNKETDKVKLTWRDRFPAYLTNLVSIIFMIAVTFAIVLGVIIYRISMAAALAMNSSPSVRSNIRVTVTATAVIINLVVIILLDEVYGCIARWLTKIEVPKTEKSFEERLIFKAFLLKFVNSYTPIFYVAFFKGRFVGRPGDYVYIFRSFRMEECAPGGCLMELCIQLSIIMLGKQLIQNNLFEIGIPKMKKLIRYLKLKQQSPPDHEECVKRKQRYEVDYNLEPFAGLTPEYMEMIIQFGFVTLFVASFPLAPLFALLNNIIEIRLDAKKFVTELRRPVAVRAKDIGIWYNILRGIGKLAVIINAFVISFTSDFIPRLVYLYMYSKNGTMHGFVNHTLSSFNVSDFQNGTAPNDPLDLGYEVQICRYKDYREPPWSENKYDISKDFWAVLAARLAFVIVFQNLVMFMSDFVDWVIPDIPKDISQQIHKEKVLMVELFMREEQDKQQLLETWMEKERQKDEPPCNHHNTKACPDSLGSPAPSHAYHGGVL
Test: Apical membrane current in TMEM16A-expressing FRT cells
Type: cell-based
Procedure: FRT cells were stably transfected with human TMEM16A (TMEM16A(abc), cDNA provided by Dr. Luis Galietta, Gaslini Institute, Genoa, Italy) and the halide sensor YFP-H148Q/1152L/F46L. Cells were plated in 96-well black-walled microplates (Corning Inc., Corning, N.Y.) at a density of 20,000 cells per well in Coon's modified F12 medium supplemented with 5% fetal calf serum, 2 mM L-glutamine, 100 U/mL penicillin and 100 μg/mL streptomycin. The human submandibular cell line A253 (ATCC HTB 41) was cultured in complete McCoy's 5A medium supplemented with 10% fetal bovine serum, 100 U/mL penicillin and 100 μg/mL streptomycin.
Snapwell inserts containing TMEM16A-expressing FRT, HBE, CF HBE or HTG cells were mounted in Ussing chambers (Physiologic Instruments, San Diego, Calif.). Amiloride, CFTRinh-172, UTP, ATP, T16Ainh-A01 and TMEM16A activators were added to the apical solution and an equal volume of vehicle was added at the same time to the basolateral solution. Symmetrical HCO3^−-buffered solutions were used for HBE, CF HBE and HTG cells. For FRT cells, the hemichambers were filled with a half-Cl^− solution (apical) and the HCO3^−-buffered solution (basolateral), and the basolateral membrane was permeabilized with 250 μg/mL amphotericin B, as described (Namkung et al. (2010), supra). Cells were bathed for a 10 min stabilization period and aerated with 95% O2/5% CO2 at 37° C. or room temperature. Apical membrane current (for FRT cells) and short-circuit current were measured using an EVC4000 Multi-Channel V/I Clamp (World Precision Instruments, Sarasota, Fla.) and recorded using PowerLab/8sp (AD Instruments, Castle Hill, Australia).
The current increase was sustained for >10 min (FIG. 2B, inset). […] Data are also shown for a second Fact compound (Fact9, see Table 1) in FIG. 9.

| SMILES | TMEM16A current following 1 μM Eact (synergy) (1-3 μM Fact after 1 μM Eact) | TMEM16A activation alone (1-3 μM Fact alone) | EC50 (EC50 from concentration-activation data, apical membrane current) | maximal TMEM16A activation compared to ATP effect (apical membrane current) | Cl^− current (apical membrane current) (basolateral membrane permeabilized, Cl^− gradient, ATP 100 μM) | inhibition of Eact- and Fact-induced Cl^− current (T16Ainh-A01 10 μM) |
| --- | --- | --- | --- | --- | --- | --- |
| O=C(Nc1ccc(Br)cc1)c1cccc(-n2cnnn2)c1 [Fact, N-(4-bromophenyl)-3-(1H-tetrazol-1-yl)benzamide] | greatly increased TMEM16A current | little TMEM16A activation | 3 to 6 µM and ~6 µM | maximal TMEM16A activation | large, concentration-dependent increases in Cl^− current | – |
| CCc1c(C)nc(SCC(=O)Nc2nc(-c3ccc(OC)cc3)cs2)[nH]c1=O [T16Ainh-A01, reference compound] | – | – | – | – | – | inhibited |
